Patent US10966994B2, “Thromboxane receptor antagonists” (ATXA THERAPEUTICS LIMITED, priority 2015, dated 2021)

What was measured:
[1] = biological target: T1, TPα (Homo sapiens, UniProt P21731); experiment: 8-iso-PGF2α-mediated calcium mobilization in HEK.TPα cells; type: cell-based; details: 10 μM 8-iso-PGF2α, estimated IC50, read-out: IC50 values for inhibition of 8-iso-PGF2α-mediated [Ca2+]i mobilization, TPα
T1 construct: expressed in transfected cells; host or cells: HEK 293 (HEK.TPα, isolate HR #4)
T1 sequence (P21731 1-343): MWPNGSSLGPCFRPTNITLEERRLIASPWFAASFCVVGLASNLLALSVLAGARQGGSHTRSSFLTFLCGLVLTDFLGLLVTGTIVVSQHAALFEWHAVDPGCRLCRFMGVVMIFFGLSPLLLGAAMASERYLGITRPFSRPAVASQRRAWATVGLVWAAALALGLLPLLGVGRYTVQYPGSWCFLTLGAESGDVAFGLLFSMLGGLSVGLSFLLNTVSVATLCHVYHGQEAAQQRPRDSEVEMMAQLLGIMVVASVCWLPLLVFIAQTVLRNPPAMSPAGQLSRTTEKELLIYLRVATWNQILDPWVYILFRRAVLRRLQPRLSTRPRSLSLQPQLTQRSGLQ
Excerpt: (§1) Effect of NTP42-NTP48 on 8-iso-PGF2α-mediated Calcium Mobilization In addition, to assessment of the compounds to antagonise U46619-mediated responses, the ability of NTP42 & NTP43 to inhibit the partial TP agonist 8-iso-PGF2α has been examined through calcium mobilization assays in HEK.TPα and HEK.TPβ cells.
(§2) Data is presented as the mean (±S.E.M.) percentage of the agonist-induced response in vehicle-treated cells (Percentage of Control; %) and represents data from at least 3 independent experiments were cells were treated in duplicate, except NTP48.

[2] = biological target: FP1 receptor (Homo sapiens, UniProt P43088); experiment: Specificity testing, FP1 receptor signaling; type: cell-based
[3] = biological target: EP2 receptor (Homo sapiens, UniProt P43116); experiment: Specificity testing, EP2 receptor signaling; type: cell-based
[4] = biological target: T2, EP1 receptor (Homo sapiens, UniProt P34995); experiment: Specificity testing, EP1 receptor signaling; type: cell-based
T2 sequence (P34995 1-402): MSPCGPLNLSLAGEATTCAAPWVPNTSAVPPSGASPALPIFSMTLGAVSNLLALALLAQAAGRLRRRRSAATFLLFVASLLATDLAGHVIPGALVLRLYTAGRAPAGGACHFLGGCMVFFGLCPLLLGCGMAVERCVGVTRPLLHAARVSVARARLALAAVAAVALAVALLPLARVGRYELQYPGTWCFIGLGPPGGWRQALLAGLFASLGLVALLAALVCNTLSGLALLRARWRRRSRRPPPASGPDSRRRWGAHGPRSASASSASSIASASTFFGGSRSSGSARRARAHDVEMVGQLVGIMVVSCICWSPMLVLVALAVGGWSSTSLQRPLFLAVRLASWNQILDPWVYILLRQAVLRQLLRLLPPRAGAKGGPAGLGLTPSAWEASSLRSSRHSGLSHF
Method: (§3) There is no or minimal inhibition of the majority of the non-TP-mediated signaling observed in the presence of either NTP42 & NTP48. Where there is inhibition of signaling, it is observed at the 10 μM concentration only. […] Compared to NTP42, NTP48 has less of an effect on the signaling of the non-TP prostanoid receptors and therefore, may be considered more favorable in this context.

[5] = tested on: human platelets; experiment: U46619-mediated platelet aggregation ex vivo (PAP-8E aggregometer); type: cell-based; details: for IC50: Platelet, human PRP, 10 min pre-incubation, 1 μM U46619, estimated IC50, read-out: IC50 values for Inhibition of U46619-Mediated Platelet Aggregation
Method: In order to evaluate NTP42-NTP49 in a second independent assay, the effect of the compounds on U46619-mediated platelet aggregation assays was examined. Clearly, from an efficacy point of view, this is an important assay and, physiologically, the more relevant with respect to the therapeutic target.
The compounds were tested in side-by-side assays with the previously identified key lead compound TP20 using the PAP-8E platelet aggregometer.
(§4) PRP was prepared from blood taken from healthy volunteers into syringes containing 3.8% sodium citrate and 10 μM indomethacin such that the final ratio of anticoagulant to blood was 1:9. Aliquots of PRP (300 μl) were pre-incubated for 10 min with the TP antagonists, TP20, NTP42, NTP43, NTP44, NTP45, NTP47, NTP48 and NTP49, where 2-fold serial dilutions from 0.25 μM was prepared for each, prior to stimulating platelets with 1 μM U46619, incubated at 37° C., with stirring. The results are presented as Percentage Aggregation (mean±S.E.M.), as determined by changes in light transmission over time using the PAP-8E Platelet Aggregation Profiler and represents data from 4 independent experiments (n=4).
as §4, with “TP20, NTP4,” for “TP20,”, “NTP42, NTP43” for “NTP42, NTP43, NTP44, NTP45, NTP47, NTP48”, “and NTP48,” for “and NTP49,”, “from 1” for “from 0.25”, “from at least 3” for “from 4”, “experiments (n≥3).” for “experiments (n=4).”

[6] = biological target: EP4 receptor (Homo sapiens, UniProt P35408); experiment: Specificity testing, EP4 receptor signaling; type: cell-based
Method: as §3

[7] = biological target: IP receptor (Homo sapiens, UniProt P43119); experiment: Specificity testing, IP receptor signaling; type: cell-based
Method: as §3

[8] = biological target: T3, DP1 receptor (Homo sapiens, UniProt Q13258); experiment: Specificity testing, DP1 receptor signaling; type: cell-based
T3 sequence (Q13258 1-359): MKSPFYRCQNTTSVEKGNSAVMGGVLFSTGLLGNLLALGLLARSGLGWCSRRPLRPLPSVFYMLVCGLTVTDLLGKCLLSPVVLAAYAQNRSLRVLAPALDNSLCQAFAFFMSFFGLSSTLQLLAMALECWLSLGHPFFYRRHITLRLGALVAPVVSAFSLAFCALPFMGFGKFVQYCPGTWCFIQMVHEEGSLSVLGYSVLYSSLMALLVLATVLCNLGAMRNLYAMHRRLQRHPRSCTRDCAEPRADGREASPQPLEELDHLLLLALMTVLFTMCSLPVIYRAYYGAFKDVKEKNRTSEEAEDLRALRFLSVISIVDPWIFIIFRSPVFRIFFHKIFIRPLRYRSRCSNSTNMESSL
Method: as §3

[9] = tested on: purinergic (ADP) receptors; experiment: Specificity testing, purinergic (ADP) receptor signaling
[10] = biological target: T4, TPβ (Homo sapiens, UniProt P21731); experiment: 8-iso-PGF2α-mediated calcium mobilization in HEK.TPβ cells; type: cell-based; details: 10 μM 8-iso-PGF2α, estimated IC50, read-out: IC50 values for inhibition of 8-iso-PGF2α-mediated [Ca2+]i mobilization, TPβ
T4 construct: expressed in transfected cells; host or cells: HEK 293 (HEK.TPβ, isolate EM #8)
Excerpt: as §1, §2

[11] = Toxicity
[12] = maximal inhibition, at 10 μM only

T4 sequence (P21731 1-407 isoform P21731-2): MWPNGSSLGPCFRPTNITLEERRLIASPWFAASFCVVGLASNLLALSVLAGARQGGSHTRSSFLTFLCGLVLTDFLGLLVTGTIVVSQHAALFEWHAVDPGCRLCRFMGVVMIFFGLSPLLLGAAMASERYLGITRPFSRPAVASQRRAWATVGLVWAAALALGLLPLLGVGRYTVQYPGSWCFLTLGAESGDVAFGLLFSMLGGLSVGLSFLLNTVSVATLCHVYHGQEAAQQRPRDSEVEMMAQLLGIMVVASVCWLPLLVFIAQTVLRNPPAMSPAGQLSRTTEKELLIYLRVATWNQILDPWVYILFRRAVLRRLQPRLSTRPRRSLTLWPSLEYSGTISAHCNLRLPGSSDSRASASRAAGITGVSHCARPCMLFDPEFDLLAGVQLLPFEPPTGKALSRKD
Sequence of EP4 receptor (P35408 whole entry): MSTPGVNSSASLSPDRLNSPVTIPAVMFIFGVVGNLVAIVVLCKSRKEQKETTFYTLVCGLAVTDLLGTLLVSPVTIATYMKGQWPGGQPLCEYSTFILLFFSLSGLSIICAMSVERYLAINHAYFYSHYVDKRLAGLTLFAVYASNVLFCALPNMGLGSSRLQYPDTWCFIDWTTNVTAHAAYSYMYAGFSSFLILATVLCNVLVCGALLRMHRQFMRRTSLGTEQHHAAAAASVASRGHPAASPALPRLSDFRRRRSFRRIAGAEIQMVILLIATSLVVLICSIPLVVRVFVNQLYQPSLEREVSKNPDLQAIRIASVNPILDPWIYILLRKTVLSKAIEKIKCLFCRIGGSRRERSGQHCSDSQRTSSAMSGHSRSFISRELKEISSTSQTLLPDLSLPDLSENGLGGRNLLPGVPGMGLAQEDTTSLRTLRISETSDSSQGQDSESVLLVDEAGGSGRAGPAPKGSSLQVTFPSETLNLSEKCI
Sequence of EP2 receptor (P43116 whole entry): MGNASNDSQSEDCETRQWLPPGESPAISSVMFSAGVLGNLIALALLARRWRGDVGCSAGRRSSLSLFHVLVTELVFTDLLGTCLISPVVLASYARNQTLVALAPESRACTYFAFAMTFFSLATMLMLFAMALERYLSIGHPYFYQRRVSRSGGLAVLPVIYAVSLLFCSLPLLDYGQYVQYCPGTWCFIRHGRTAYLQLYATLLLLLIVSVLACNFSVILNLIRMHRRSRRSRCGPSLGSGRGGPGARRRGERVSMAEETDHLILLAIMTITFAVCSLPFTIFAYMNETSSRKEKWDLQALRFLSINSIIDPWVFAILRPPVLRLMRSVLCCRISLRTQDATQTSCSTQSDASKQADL
Sequence of FP1 receptor (P43088 whole entry): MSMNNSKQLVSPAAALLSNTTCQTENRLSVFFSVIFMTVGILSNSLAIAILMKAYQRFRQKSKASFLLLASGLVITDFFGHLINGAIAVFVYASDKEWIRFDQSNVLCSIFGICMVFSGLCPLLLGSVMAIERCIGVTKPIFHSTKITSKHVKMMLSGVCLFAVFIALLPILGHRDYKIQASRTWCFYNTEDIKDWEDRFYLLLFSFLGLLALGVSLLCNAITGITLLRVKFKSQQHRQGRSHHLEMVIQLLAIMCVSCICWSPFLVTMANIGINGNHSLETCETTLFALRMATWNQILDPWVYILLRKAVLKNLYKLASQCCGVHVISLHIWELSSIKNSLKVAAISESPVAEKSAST
Sequence of IP receptor (P43119 whole entry): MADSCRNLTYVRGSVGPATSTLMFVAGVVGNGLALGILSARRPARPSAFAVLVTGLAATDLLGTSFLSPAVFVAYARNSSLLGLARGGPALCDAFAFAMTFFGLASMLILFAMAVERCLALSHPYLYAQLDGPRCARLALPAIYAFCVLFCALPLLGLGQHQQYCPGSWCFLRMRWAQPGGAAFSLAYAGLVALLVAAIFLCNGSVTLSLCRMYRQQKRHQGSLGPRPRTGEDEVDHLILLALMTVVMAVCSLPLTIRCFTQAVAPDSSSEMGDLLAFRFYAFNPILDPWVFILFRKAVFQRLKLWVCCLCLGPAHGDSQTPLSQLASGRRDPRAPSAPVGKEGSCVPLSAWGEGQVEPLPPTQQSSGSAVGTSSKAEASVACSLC

Compound | IC50 [1] | effect on the FP1 receptor (FP-mediated signaling) [2] | effect on the EP2 receptor [3] | effect on the EP1 receptor [4] | IC50 [5] | effect on the EP4 receptor [6] | effect on the IP receptor [7] | effect on the DP1 receptor (DP-mediated signaling) [8] | effect on signaling through purinergic (ADP) receptors [9] | IC50 [10] | percentage reduction in responses, EP1 [4, 12] | percentage reduction in responses, EP4 [6, 12] | percentage reduction in responses, IP [7, 12] | percentage reduction in responses, DP1 [8, 12] | toxicity [11] | inhibition of U46619-mediated aggregation of human platelet ex vivo (in words) ([5]; 1 μM U46619)
COc1ccc(-c2cccc(Oc3ccc(C#N)cc3S(=O)(=O)NC(=O)NC(C)(C)C)c2)cc1 [NTP4, reference compound] | 103 ± 11.1 nM | like TP20 and NTP4, neither NTP42, NTP43 nor NTP48 exhibited any effect | like TP20 and NTP4, neither NTP42, NTP43 nor NTP48 exhibited any effect | like TP20 and NTP4, neither NTP42, NTP43 nor NTP48 exhibited any effect | 21.3 ± 1.01 nM | like TP20 and NTP4, neither NTP42, NTP43 nor NTP48 exhibited any effect | like TP20 and NTP4, neither NTP42, NTP43 nor NTP48 exhibited any effect | like TP20 and NTP4, neither NTP42, NTP43 nor NTP48 exhibited any effect | like TP20 and NTP4, neither NTP42, NTP43 nor NTP48 exhibited any effect | 58 ± 6.31 nM |  |  |  |  |  | 
CC(C)(C)NC(=O)NS(=O)(=O)c1cc(C#N)ccc1Oc1cccc(-c2ccc(OC(F)F)cc2)c1 [NTP42] | 12.8 ± 1.42 nM | no effect | no effect | no effect | 10.1 ± 1.07 nM | no effect | no effect | no effect | neither NTP42, NTP43 nor NTP48 exhibited any effect | 8 ± 1 nM | ~55% | 40% | 50% | < 30% | minimal toxicity | 
CC(C)(C)NC(=O)NS(=O)(=O)c1cc(C#N)ccc1Oc1cccc(-c2ccc(OC(F)(F)F)cc2)c1 [NTP43] | 30.7 ± 5.05 nM | not to exhibit any effect | not to exhibit any effect | not to exhibit any effect | 22 ± 2.03 nM | not to exhibit any effect | not to exhibit any effect | not to exhibit any effect | neither NTP42, NTP43 nor NTP48 exhibited any effect | 9 ± 1.6 nM |  |  |  |  | minimal toxicity | 
CN(C)C(=O)c1ccc(-c2cccc(Oc3ccc(C#N)cc3S(=O)(=O)NC(=O)NC(C)(C)C)c2)cc1 [NTP48, 4-[3-[2-(tert-Butylcarbamoylsulfamoyl)-4-cyano-phenoxy]phenyl]-N,N-dimethyl-benzamide] | 29.3 ± 3.87 nM | no effect | no effect | no effect | 9.45 ± 1.38 nM | no effect | no effect | no effect | neither NTP42, NTP43 nor NTP48 exhibited any effect | 15.4 ± 2.16 nM |  |  |  |  | minimal toxicity | 
COc1ccc(-c2cccc(Oc3ccc([N+](=O)[O-])cc3S(=O)(=O)NC(=O)NC(C)(C)C)c2)cc1 [TP20, reference compound] | 46.4 ± 4.24 nM | like TP20 and NTP4, neither NTP42, NTP43 nor NTP48 exhibited any effect | like TP20 and NTP4, neither NTP42, NTP43 nor NTP48 exhibited any effect | like TP20 and NTP4, neither NTP42, NTP43 nor NTP48 exhibited any effect | 4.62 ± 0.72 nM | like TP20 and NTP4, neither NTP42, NTP43 nor NTP48 exhibited any effect | like TP20 and NTP4, neither NTP42, NTP43 nor NTP48 exhibited any effect | like TP20 and NTP4, neither NTP42, NTP43 nor NTP48 exhibited any effect | like TP20 and NTP4, neither NTP42, NTP43 nor NTP48 exhibited any effect | 17 ± 2.12 nM |  |  |  |  |  | potently inhibit
